In patent publication US6676973B1, “Method of treating ovarian cancers with cadmium” (priority 1995, dated 2004):

Tests used:
A2780 cells = experiment: microculture tetrazolium (MTT) cytotoxicity assay, A2780; format: cell-based, human
Procedure: (§1) Human ovarian cancer A2780 and A2780/CP70 cells were cultured in monolayer using RPMI 1640 media supplemented with 10% fetal calf serum, 2 mM L-glutamine, 0.2 U insulin/ml, 100 U/ml penicillin, and 100 μg/ml streptomycin (GIBCO, Grands Island, N.Y.). Cells were grown in a humidified chamber containing a mixture of 5% CO2 and ambient air at 37° C. Sensitivity of A2780 and A2780/CP70 cells to Cd and to cisplatin was assessed by microculture tetrazolium (MTT) assay, as described by Alley et al. Briefly, cells were plated at 1000 cells/well in 96-well plates and drug exposure was made the following day. Cadmium dichloride was initially dissolved in double distilled water (Dh2O) at 1.0 mg/ml (5.46 Mm Cadmium), and dilutions from this solution were made in media to obtain the desired drug treatment concentrations of 1 μM, 10 μM, 20 μM, 40 μM, 100 μM, 150 μM and 200 μM. Cisplatin was dissolved in PBS without Ca^++ or Mg^++ at 1.0 mg/ml (3.33 Mm cisplatin), and dilutions from this solution was made in media to obtain the desired drug treatment concentrations of ranging from 1 μM to 300 μM. Drug treatments were for 1 hour.
(§2) After drug treatments, cells were washed twice with PBS without Ca^++ or Mg^++, treated with fresh drug-free media, and incubated for 5 days. On day 5 after drug treatment, 50 microliter of 3-(4,5-dimethylthiazol-2-yl)-2,5 diphenyltetrazolium bromide (MTT) (400 mg in 200 ml of PBS) were added to each well and incubated for 4 hours at 37° C. Analysis of optical density readings were performed using the VV Deltasoft program on a Macintosh computer (Apple, Inc., Palo Alto, Calif.) and percentage cell growth values were obtained.

A2780/CP70 cells = format: cell-based, human
Procedure: as §1, §2

For N.N.[Cl][Pt][Cl] [cisplatin, reference compound], the IC50 (A2780 cells; A2780 cells, 1 hour exposure, MTT, read-out: 50% cell kill (IC50)) was 16 µM, the “A2780 cells more sensitive to cisplatin than to Cd” value (A2780 cells; on a μM basis, 50% cell kill) was 3.6 fold and the IC50 (A2780/CP70 cells; A2780/CP70 cells, 1 hour exposure, MTT, read-out: 50% cell kill (IC50)) was 160 µM. For the same compound, the “increase in resistance of A2780/CP70 cells as compared to A2780 cells” value (A2780/CP70 cells; drug exposures associated with 50% cell kill) was 10 fold.
